These results are taken from US5130307A, “Aminoesters of rapamycin” (American Home Products Corporation, priority 1991, dated 1992).

The subject of experiment [1] is Candida albicans ATCC 38248. The experiment can be described thus: antifungal plate test, MIC. The class given is cell-based. Conditions: ATCC38248. How it is done: (§1) The following represents the typical procedure used. Compound to be tested was placed on sterile dried 1/4" plate disks, and allowed to dry. Agar plates were seeded with fungi and allowed to solidify. The impregnated disks were placed on the seeded Agar surface and incubated for the time required for the particular culture. Results are expressed in MIC (μg/ml) to inhibit growth.

Experiment [2] concerns Candida albicans 3669. The experiment can be described thus: antifungal plate test, MIC. The class given is cell-based. The procedure:
as §1

Experiment [3] has as its system Candida albicans ATCC 10231. The experiment can be described thus: antifungal plate test, MIC. The class given is cell-based. Conditions: ATCC10231. How it is done:
as §1

Experiment [4] relates to Candida albicans ATCC 38247. As to the kind of experiment: antifungal plate test, MIC. Conditions: ATCC38247. Format: cell-based. How it is done: as §1
Experiment [5] relates to Candida albicans ATCC 38246. The experiment can be described thus: antifungal plate test, MIC. The class given is cell-based. As to conditions: ATCC38246. The procedure: as §1
For experiment [6], the system named is popliteal lymph node. As to the kind of experiment: popliteal lymph node (PLN) test procedure, in vivo mixed lymphocyte reaction. Also on record: species or system C3H mice (BALB/c donors). The procedure:
(§2) Immunosuppressive activity was evaluated in an in vitro standard pharmacological test procedure to measure lymphocyte proliferation (LAF) and in two in vivo standard pharmacological test procedures. The first in vivo procedure was a popliteal lymph node (PLN) test procedure which measured the effect of compounds of this invention on a mixed lymphocyte reaction and the second in vivo procedure evaluated the survival time of a pinch skin graft.
A mixed lymphocyte reaction (MLR) occurs when lymphoid cells from genetically distinct animals are combined in tissue culture. Each stimulates the other to undergo blast transformation which results in increased DNA synthesis that can be quantified by the incorporation of tritiated thymidine. Since stimulating a MLR is a function of disparity at Major Histocompatibility antigens, an in vivo popliteal lymph node (PLN) test procedure closely correlates to host vs. graft disease. Briefly, irradiated spleen cells from BALB/c donors are injected into the right hind foot pad of recipient C3H mice. The drug is given daily, p.o. from Day 0 to Day 4. On Day 3 and Day 4, tritiated thymidine is given i.p., b.i.d. On Day 5, the hind popliteal lymph nodes are removed and dissolved, and radioactivity counted. […] Percent suppression is calculated using the non-drug treated animals as allogenic control. […]

In experiment [7] the test system is pinch skin graft from male DBA/2 donors transplanted to male BALB/c recipients. As to the kind of experiment: survival time of pinch skin graft. The class given is in vivo. Conditions: for Skin Graft (days + SD), mean graft survival time: intraperitoneally. The procedure: as §2
The second in vivo test procedure is designed to determine the survival time of pinch skin graft from male DBA/2 donors transplanted to male BALB/c recipients. The method is adapted from Billingham R.E. and Medawar P.B., J. Exp. Biol. 28:385-402, (1951). Briefly, a pinch skin graft from the donor is grafted on the dorsum of the recipient as a homograft, and an autograft is used as control in the same region. […] Untreated recipients serve as rejection control. The graft is monitored daily and observations are recorded until the graft becomes dry and forms a blackened scab. This is considered as the rejection day. The mean graft survival time (number of days ±S.D.) of the drug treatment group is compared with the control group.

The subject of experiment [8] is transplant rejection. As to conditions: cited from earlier work.
Experiment [9] concerns Candida albicans. Conditions: in vitro and in vivo; cited from earlier work.
Experiment [10] concerns IgE-like antibodies. As to conditions: cited from earlier work.
The conditions of experiment [11]: alone or in combination with picibanil; cited from earlier work.
The test system of experiment [12] is experimental allergic encephalomyelitis. Conditions: in vivo; cited from earlier work.

SMILES strings stand for the structures. ≈ marks a conversion by molar mass, not a printed value.

For `CO[C@H]1C[C@@H]2CC[C@@H](C)[C@@](O)(O2)C(=O)C(=O)N2CCCC[C@H]2C(=O)O[C@H]([C@H](C)C[C@@H]2CC[C@@H](OC(=O)[C@H](CCCCNC(=O)OC(C)(C)C)NC(=O)OC(C)(C)C)[C@H](OC)C2)CC(=O)[C@H](C)/C=C(\C)[C@@H](O)[C@@H](OC)C(=O)[C@H](C)C[C@H](C)/C=C/C=C/C=C/1C` [Example 12, Rapamycin-42-ester with N^α, N^ε -bis[(1,1-dimethylethoxy)carbonyl]-L-lysine], the MIC is 0.2 µg/mL (≈ 0.161 µM) in experiment [1]; 0.4 µg/mL (≈ 0.322 µM) in experiment [2]; 0.2 µg/mL (≈ 0.161 µM) in experiment [3]; 0.1 µg/mL (≈ 0.0805 µM) in [4]; > 0.4 µg/mL in [5]. The “effect on T cell proliferation in PLN (in words)” value in experiment [6] (negative ratio) is “may cause T cell proliferation in the PLN test procedure”. In experiment [7], the “Skin Graft (days + SD), mean graft survival time” value (“Skin Graft (days + SD)” for short) stood at 12.0 ± 2.0 days. In addition, in experiment [7] (untreated grafts typically rejected within 6-7 days), the “survival time of the skin graft (in words)” value is reported as “increased survival time observed in the skin graft test procedure”.

Turning to `CO[C@H]1C[C@@H]2CC[C@@H](C)[C@@](O)(O2)C(=O)C(=O)N2CCCC[C@H]2C(=O)O[C@H]([C@H](C)C[C@@H]2CC[C@@H](OC(=O)[C@H](CCCCNC(=O)OC(C)(C)C)NC(=O)OC(C)(C)C)[C@H](OC)C2)CC(=O)[C@H](C)/C=C(\C)[C@@H](OC(=O)[C@H](CCCCNC(=O)OC(C)(C)C)NC(=O)OC(C)(C)C)[C@@H](OC)C(=O)[C@H](C)C[C@H](C)/C=C/C=C/C=C/1C` [Example 13, Rapamycin-31,42-diester with N^α, N^ε bis [(1,1-dimethylethoxy)carbonyl]-L-lysine], the MIC in experiment [1], in experiment [2], in [3], in experiment [4] and in [5] was > 0.4 µg/mL in each case. Also, the “Skin Graft (days + SD)” value in [7] is reported as 7.0 ± 0.6 days.

Consider `C=CC[C@@H]1/C=C(\C)C[C@H](C)C[C@H](OC)[C@H]2O[C@@](O)(C(=O)C(=O)N3CCCC[C@H]3C(=O)O[C@H](/C(C)=C/[C@@H]3CC[C@@H](O)[C@H](OC)C3)[C@H](C)[C@@H](O)CC1=O)[C@H](C)C[C@@H]2OC` [FK-506], for which, in experiment [8], the “inhibition of transplant rejection / immunosuppressive effect (in words)” value is reported as “effective as immunosuppressive agents”.

Take `CO[C@H]1C[C@@H]2CC[C@@H](C)[C@@](O)(O2)C(=O)C(=O)N2CCCC[C@H]2C(=O)O[C@H]([C@H](C)C[C@@H]2CC[C@@H](O)[C@H](OC)C2)CC(=O)[C@H](C)/C=C(\C)[C@@H](O)[C@@H](OC)C(=O)[C@H](C)C[C@H](C)/C=C/C=C/C=C/1C` [Rapamycin]: the “antifungal activity (in words)” value in experiment [9] was “antifungal activity, particularly against Candida albicans, both in vitro and in vivo”. Also, in experiment [8], the “inhibition of transplant rejection / immunosuppressive effect (in words)” value is recorded as “effective in inhibiting transplant rejection”. For the same molecule, the “inhibition of the formation of IgE-like antibodies (in words)” value in experiment [10] is “effectively inhibited the formation of IgE-like antibodies”. Further, the “PLN (ratio)” value in [6] (p.o. daily Day 0 to Day 4, ratio, rapamycin 1.0) came to 1.0. The “antitumor activity (in words)” value in [11] is recorded as “has been shown to have antitumor activity”. In addition, the “effectiveness in experimental allergic encephalomyelitis model (in words)” value in [12] is listed as “effective in the experimental allergic encephalomyelitis model”. Besides, the “Skin Graft (days + SD)” value in experiment [7] is reported as 12.0 ± 1.7 days.

The term MIC denotes the lowest concentration found to suppress growth. Lower therefore signals inhibition by little substance.
